# Tested on: barnyard grass (Eo)
# Assay: Test Example 1: herbicidal effects by flooded paddy field treatment;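 note: 0-5 growth inhibition grade; 5 = over 90%; 4 = 70-90%; 3 = 50-70%; 2 = 30-50%; 1 = 10-30%; 0 = under 10%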
# Format: in vivo
# Conditions: dose 100 gai/10a, examined on 21st day after treatment, index 0-5 per Table 44
# Method in brief: (§1)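 Dose: 100 g active ingredient per 10 ares as a diluted wettable powder dripped onto 3 cm floodwater, one day after sowing in puddled paddy soil. Scored by a standard rating scale 21 days later following greenhouse growth.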
row,Structure (SMILES),"Herbicidal effect index, Eo"
1,CCCN(C(=O)Cc1ccc(Cl)cc1)C(c1cncnc1C(F)(F)F)C(C)C (racemic) [Compound 1-49],5
2,COCc1ccc(CC(=O)N(C)C(c2cncnc2C(F)(F)F)C(C)C)cc1 (racemic) [Compound 1-76],5
3,CC#Cc1ccc(CC(=O)N(C)C(c2cncnc2C(F)(F)F)C(C)C)cc1 (racemic) [Compound 1-84],5
4,CCCN(C(=O)Cc1ccc(C#N)cc1)C(c1cncnc1C(F)(F)F)C(C)C (racemic) [Compound 1-99],5
5,CC(C)c1ccc(CC(=O)N(C)C(c2cncnc2C(F)(F)F)C(C)C)cc1 (racemic) [Compound 1-68],5
6,CC(C)C(c1cncnc1C(F)(F)F)N(C(=O)Cc1ccccc1)C1CC1 (racemic) [Compound 1-80],5
7,CC(C)C(c1cncnc1C(F)(F)Cl)N(C)C(=O)Cc1ccccc1 (racemic) [Compound 1-15],5
8,CC(C)C(c1cncnc1C(F)(F)F)N(C)C(=O)C=Cc1ccccc1 (racemic) [Compound 1-85],5

# Tested on: monochoria (Mo)
# Assay: as above
# Format: in vivo
# Conditions: dose 100 gai/10a, examined on 21st day after treatment, index 0-5 per Table 44
# Method in brief: as §1
row,Structure (SMILES),"Herbicidal effect index, Mo"
1,CCCN(C(=O)Cc1ccc(Cl)cc1)C(c1cncnc1C(F)(F)F)C(C)C (racemic) [Compound 1-49],5
2,COCc1ccc(CC(=O)N(C)C(c2cncnc2C(F)(F)F)C(C)C)cc1 (racemic) [Compound 1-76],5
3,CC#Cc1ccc(CC(=O)N(C)C(c2cncnc2C(F)(F)F)C(C)C)cc1 (racemic) [Compound 1-84],5
4,CCCN(C(=O)Cc1ccc(C#N)cc1)C(c1cncnc1C(F)(F)F)C(C)C (racemic) [Compound 1-99],5
5,CC(C)c1ccc(CC(=O)N(C)C(c2cncnc2C(F)(F)F)C(C)C)cc1 (racemic) [Compound 1-68],5
6,CC(C)C(c1cncnc1C(F)(F)F)N(C(=O)Cc1ccccc1)C1CC1 (racemic) [Compound 1-80],5
7,CC(C)C(c1cncnc1C(F)(F)Cl)N(C)C(=O)Cc1ccccc1 (racemic) [Compound 1-15],5
8,CC(C)C(c1cncnc1C(F)(F)F)N(C)C(=O)C=Cc1ccccc1 (racemic) [Compound 1-85],5

# Tested on: barnyard grass (Ec)
# Assay: Test Example 2: herbicidal effects by upland soil treatment;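 for herbicidal effects, Se (green foxtail): 0-5 growth inhibition grade; 5 = over 90%; 4 = 70-90%; 3 = 50-70%; 2 = 30-50%; 1 = 10-30%; 0 = under 10%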
# Format: in vivo
# Parameters: scale not given here
# Conditions: dose 100 g active ingredient per 10 ares, examined on the 21st day after treatment, standards of Table 44
# Method in brief: (§2)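 Pre-emergence test: barnyard grass and green foxtail sown in upland soil, then soil surface sprayed with wettable-powder formulation at 100 g active ingredient per 10 ares (100 l per 10 ares). Grown in greenhouse; herbicidal effect scored on a rating scale 21 days after treatment.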
row,Structure (SMILES),"herbicidal effects, Ec (barnyard grass)"
1,CCCN(C(=O)Cc1ccc(Cl)cc1)C(c1cncnc1C(F)(F)F)C(C)C (racemic) [Compound 1-49],5
2,CC(C)C(c1cncnc1C(F)(F)F)N(C)C(=O)CCc1ccccc1 (racemic) [Compound 1-77],5
3,COCc1ccc(CC(=O)N(C)C(c2cncnc2C(F)(F)F)C(C)C)cc1 (racemic) [Compound 1-76],5
4,CCCN(C(=O)Cc1ccc(C#N)cc1)C(c1cncnc1C(F)(F)F)C(C)C (racemic) [Compound 1-99],5
5,CC(C)c1ccc(CC(=O)N(C)C(c2cncnc2C(F)(F)F)C(C)C)cc1 (racemic) [Compound 1-68],5
6,CC(C)C(c1cncnc1C(F)(F)F)N(C(=O)Cc1ccccc1)C1CC1 (racemic) [Compound 1-80],5
7,CC(C)C(c1cncnc1C(F)(F)Cl)N(C)C(=O)Cc1ccccc1 (racemic) [Compound 1-15],5
8,CC(C)C(c1cncnc1C(F)(F)F)N(C)C(=O)C=Cc1ccccc1 (racemic) [Compound 1-85],5

# Tested on: green foxtail (Se)
# Assay: as above
# Format: in vivo
# Conditions: dose 100 g active ingredient per 10 ares, examined on the 21st day after treatment, standards of Table 44
# Method in brief: as §2
row,Structure (SMILES),"herbicidal effects, Se (green foxtail)"
1,CCCN(C(=O)Cc1ccc(Cl)cc1)C(c1cncnc1C(F)(F)F)C(C)C (racemic) [Compound 1-49],4
2,CC(C)C(c1cncnc1C(F)(F)F)N(C)C(=O)CCc1ccccc1 (racemic) [Compound 1-77],5
3,COCc1ccc(CC(=O)N(C)C(c2cncnc2C(F)(F)F)C(C)C)cc1 (racemic) [Compound 1-76],5
4,CCCN(C(=O)Cc1ccc(C#N)cc1)C(c1cncnc1C(F)(F)F)C(C)C (racemic) [Compound 1-99],5
5,CC(C)c1ccc(CC(=O)N(C)C(c2cncnc2C(F)(F)F)C(C)C)cc1 (racemic) [Compound 1-68],5
6,CC(C)C(c1cncnc1C(F)(F)F)N(C(=O)Cc1ccccc1)C1CC1 (racemic) [Compound 1-80],5
7,CC(C)C(c1cncnc1C(F)(F)Cl)N(C)C(=O)Cc1ccccc1 (racemic) [Compound 1-15],5
8,CC(C)C(c1cncnc1C(F)(F)F)N(C)C(=O)C=Cc1ccccc1 (racemic) [Compound 1-85],5

# Tested on: barnyard grass (Eo)
# Assay: Test Example 4: selectivity for a crop plant by flooded paddy field treatment
# Format: in vivo
# Parameters: scale not given here
# Conditions: barnyard grass, dose 25 gai/10a, 21st day after treatment, index per Table 44
# Method in brief: (§3)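 Water-surface application in a greenhouse pot test: 25 g active ingredient per 10 ares, given as a diluted wettable powder one day after flooding, with visual rating of herbicidal effect three weeks post-treatment.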
row,Structure (SMILES),Eo (herbicidal effect index)
1,CCCN(C(=O)Cc1ccc(C#N)cc1)C(c1cncnc1C(F)(F)F)C(C)C (racemic) [Compound 1-99],5

# Same assay, conditions: dose 25 g active ingredient per 10 ares, examined on the 21st day after treatment
row,Structure (SMILES),"Eo (herbicidal effects, index)"
1,CCCN(C(=O)Cc1ccc(Cl)cc1)C(c1cncnc1C(F)(F)F)C(C)C (racemic) [Compound 1-49],5
2,COCc1ccc(CC(=O)N(C)C(c2cncnc2C(F)(F)F)C(C)C)cc1 (racemic) [Compound 1-76],5
3,CC#Cc1ccc(CC(=O)N(C)C(c2cncnc2C(F)(F)F)C(C)C)cc1 (racemic) [Compound 1-84],5
4,CC(C)C(c1cncnc1C(F)(F)F)N(C)C(=O)C=Cc1ccccc1 (racemic) [Compound 1-85],5

# Tested on: monochoria (Mo)
# Assay: as above
# Format: in vivo
# Parameters: scale not given here
# Conditions: dose 25 g active ingredient per 10 ares, examined on the 21st day after treatment
# Method in brief: as §3
row,Structure (SMILES),"Mo (herbicidal effects, index)"
1,CCCN(C(=O)Cc1ccc(Cl)cc1)C(c1cncnc1C(F)(F)F)C(C)C (racemic) [Compound 1-49],5
2,COCc1ccc(CC(=O)N(C)C(c2cncnc2C(F)(F)F)C(C)C)cc1 (racemic) [Compound 1-76],5
3,CC#Cc1ccc(CC(=O)N(C)C(c2cncnc2C(F)(F)F)C(C)C)cc1 (racemic) [Compound 1-84],5
4,CC(C)C(c1cncnc1C(F)(F)F)N(C)C(=O)C=Cc1ccccc1 (racemic) [Compound 1-85],5

# Same assay, conditions: monochoria, dose 25 gai/10a, 21st day after treatment, index per Table 44
row,Structure (SMILES),Mo (herbicidal effect index)
1,CCCN(C(=O)Cc1ccc(C#N)cc1)C(c1cncnc1C(F)(F)F)C(C)C (racemic) [Compound 1-99],5

# Tested on: rice (Or)
# Assay: as above
# Format: in vivo
# Parameters: scale not given here
# Conditions: rice transplanted at second leaf stage, dose 25 g active ingredient per 10 ares, examined on the 21st day after treatment
# Method in brief: as §3
row,"Or (effect on crop plant rice, index)",Structure (SMILES)
1,0,CCCN(C(=O)Cc1ccc(Cl)cc1)C(c1cncnc1C(F)(F)F)C(C)C (racemic) [Compound 1-49]
2,0,COCc1ccc(CC(=O)N(C)C(c2cncnc2C(F)(F)F)C(C)C)cc1 (racemic) [Compound 1-76]
3,0,CC#Cc1ccc(CC(=O)N(C)C(c2cncnc2C(F)(F)F)C(C)C)cc1 (racemic) [Compound 1-84]
4,0,CC(C)C(c1cncnc1C(F)(F)F)N(C)C(=O)C=Cc1ccccc1 (racemic) [Compound 1-85]

# Same assay, conditions: rice transplanted at second leaf stage, dose 25 gai/10a, 21st day after treatment, index per Table 44
row,Structure (SMILES),Or (herbicidal effect index on crop)
1,CCCN(C(=O)Cc1ccc(C#N)cc1)C(c1cncnc1C(F)(F)F)C(C)C (racemic) [Compound 1-99],1

# Tested on: barnyard grass (Ec)
# Assay: Test Example 5: selectivity for a crop plant by soil treatment in upland field
# Format: in vivo
# Parameters: scale not given here
# Conditions: dose 25 gai/10a, 21st day after treatment, index per Table 44
# Method: (§4) In a 80 cm^2 plastic pot, upland soil was filled, and seeds of barnyard grass (Ec), green foxtail (Se), soybean (G1), wheat (Tr) and corn (Ze) were sown and covered with soil. A wettable powder prepared in accordance with Formulation Example 1 was diluted with water and uniformly applied to the soil surface by a small size spray at a rate of 100 l per 10 ares so that the dose of the active ingredient would be 25 g per 10 ares. Thereafter, cultivation was carried out in a green house, and on the 21st day after the treatment, the herbicidal effects were examined in accordance with the standards of Table 44.
row,Structure (SMILES),Ec (herbicidal effect index)
1,CCCN(C(=O)Cc1ccc(Cl)cc1)C(c1cncnc1C(F)(F)F)C(C)C (racemic) [Compound 1-49],5
2,CC(C)C(c1cncnc1C(F)(F)F)N(C)C(=O)CCc1ccccc1 (racemic) [Compound 1-77],5
3,COCc1ccc(CC(=O)N(C)C(c2cncnc2C(F)(F)F)C(C)C)cc1 (racemic) [Compound 1-76],4
4,CC#Cc1ccc(CC(=O)N(C)C(c2cncnc2C(F)(F)F)C(C)C)cc1 (racemic) [Compound 1-84],4
5,CCCN(C(=O)Cc1ccc(C#N)cc1)C(c1cncnc1C(F)(F)F)C(C)C (racemic) [Compound 1-99],4
6,CC(C)c1ccc(CC(=O)N(C)C(c2cncnc2C(F)(F)F)C(C)C)cc1 (racemic) [Compound 1-68],4
7,CC(C)C(c1cncnc1C(F)(F)F)N(C(=O)Cc1ccccc1)C1CC1 (racemic) [Compound 1-80],5
8,CC(C)C(c1cncnc1C(F)(F)Cl)N(C)C(=O)Cc1ccccc1 (racemic) [Compound 1-15],5
9,CC(C)C(c1cncnc1C(F)(F)F)N(C)C(=O)C=Cc1ccccc1 (racemic) [Compound 1-85],4

# Tested on: corn (Ze)
# Assay: as above
# Format: in vivo
# Parameters: scale not given here
# Conditions: dose 25 gai/10a, 21st day after treatment, index per Table 44
# Method: as §4
row,Structure (SMILES),Ze (herbicidal effect index on crop)
1,CCCN(C(=O)Cc1ccc(Cl)cc1)C(c1cncnc1C(F)(F)F)C(C)C (racemic) [Compound 1-49],3
2,CC(C)C(c1cncnc1C(F)(F)F)N(C)C(=O)CCc1ccccc1 (racemic) [Compound 1-77],2
3,COCc1ccc(CC(=O)N(C)C(c2cncnc2C(F)(F)F)C(C)C)cc1 (racemic) [Compound 1-76],2
4,CC#Cc1ccc(CC(=O)N(C)C(c2cncnc2C(F)(F)F)C(C)C)cc1 (racemic) [Compound 1-84],0
5,CCCN(C(=O)Cc1ccc(C#N)cc1)C(c1cncnc1C(F)(F)F)C(C)C (racemic) [Compound 1-99],0
6,CC(C)c1ccc(CC(=O)N(C)C(c2cncnc2C(F)(F)F)C(C)C)cc1 (racemic) [Compound 1-68],2
7,CC(C)C(c1cncnc1C(F)(F)F)N(C(=O)Cc1ccccc1)C1CC1 (racemic) [Compound 1-80],1
8,CC(C)C(c1cncnc1C(F)(F)Cl)N(C)C(=O)Cc1ccccc1 (racemic) [Compound 1-15],1
9,CC(C)C(c1cncnc1C(F)(F)F)N(C)C(=O)C=Cc1ccccc1 (racemic) [Compound 1-85],0

# Tested on: soybean (G1)
# Assay: as above
# Format: in vivo
# Parameters: scale not given here
# Conditions: dose 25 gai/10a, 21st day after treatment, index per Table 44
# Method: as §4
row,Structure (SMILES),Gl (herbicidal effect index on crop)
1,CCCN(C(=O)Cc1ccc(Cl)cc1)C(c1cncnc1C(F)(F)F)C(C)C (racemic) [Compound 1-49],1
2,CC(C)C(c1cncnc1C(F)(F)F)N(C)C(=O)CCc1ccccc1 (racemic) [Compound 1-77],1
3,COCc1ccc(CC(=O)N(C)C(c2cncnc2C(F)(F)F)C(C)C)cc1 (racemic) [Compound 1-76],0
4,CC#Cc1ccc(CC(=O)N(C)C(c2cncnc2C(F)(F)F)C(C)C)cc1 (racemic) [Compound 1-84],0
5,CCCN(C(=O)Cc1ccc(C#N)cc1)C(c1cncnc1C(F)(F)F)C(C)C (racemic) [Compound 1-99],0
6,CC(C)c1ccc(CC(=O)N(C)C(c2cncnc2C(F)(F)F)C(C)C)cc1 (racemic) [Compound 1-68],0
7,CC(C)C(c1cncnc1C(F)(F)F)N(C(=O)Cc1ccccc1)C1CC1 (racemic) [Compound 1-80],0
8,CC(C)C(c1cncnc1C(F)(F)F)N(C)C(=O)C=Cc1ccccc1 (racemic) [Compound 1-85],0

# Tested on: wheat (Tr)
# Assay: as above
# Format: in vivo
# Parameters: scale not given here
# Conditions: dose 25 gai/10a, 21st day after treatment, index per Table 44
# Method: as §4
row,Structure (SMILES),Tr (herbicidal effect index on crop)
1,CCCN(C(=O)Cc1ccc(Cl)cc1)C(c1cncnc1C(F)(F)F)C(C)C (racemic) [Compound 1-49],0
2,CC(C)C(c1cncnc1C(F)(F)F)N(C)C(=O)CCc1ccccc1 (racemic) [Compound 1-77],3
3,COCc1ccc(CC(=O)N(C)C(c2cncnc2C(F)(F)F)C(C)C)cc1 (racemic) [Compound 1-76],2
4,CC#Cc1ccc(CC(=O)N(C)C(c2cncnc2C(F)(F)F)C(C)C)cc1 (racemic) [Compound 1-84],1
5,CCCN(C(=O)Cc1ccc(C#N)cc1)C(c1cncnc1C(F)(F)F)C(C)C (racemic) [Compound 1-99],3
6,CC(C)c1ccc(CC(=O)N(C)C(c2cncnc2C(F)(F)F)C(C)C)cc1 (racemic) [Compound 1-68],2
7,CC(C)C(c1cncnc1C(F)(F)F)N(C(=O)Cc1ccccc1)C1CC1 (racemic) [Compound 1-80],5
8,CC(C)C(c1cncnc1C(F)(F)Cl)N(C)C(=O)Cc1ccccc1 (racemic) [Compound 1-15],1
9,CC(C)C(c1cncnc1C(F)(F)F)N(C)C(=O)C=Cc1ccccc1 (racemic) [Compound 1-85],1

# From patent US6806230B1, “Pyrimidine derivatives and herbicides containing them” (Kumiai Chemical Industry Co., Ltd., priority 1999, dated 2004)
